Test results from PubChem BioAssay AID324 (DTP/NCI, 2004).
Values joined by “and” are separate entries in the source; they are usually repeats but may differ in a detail not shown here. Equal values may be shown once. Toxic doses and inconclusive results are not listed.

System: CD2F1 mice, AMSA-resistant P388 leukemia ip, median survival T/C
Test: NCI In Vivo Anticancer Drug Screen. Data for tumor model P388 Leukemia resistant to AMSA; NSC 249992 (intraperitoneal) in CD2F1 (CDF1) mice
Settings: endpoint: median survival time, higher = longer survival
Method: The antitumor activity of compounds was measured in mice bearing transplantable tumors. Survival or tumor size were measured and the results are expressed as the measurement made in the treated group (T) divided by the measurement made in the vehicle treated control group (C). The tumor model used in this assay is P388 Leukemia resistant to AMSA; NSC 249992 (intraperitoneal) in CD2F1 (CDF1) mice

[1] = dose: 6.48 mg/kg/injection, schedule: Q04DX003 (ip), vehicle: water
[2] = dose: 10.8 mg/kg/injection, schedule: Q04DX003 (ip), vehicle: water
[3] = dose: 18.0 mg/kg/injection, schedule: Q04DX003 (ip), vehicle: water

## Nc1ncn(C2OC(CO)C(O)C2O)c(=O)n1 (stereo not drawn)
dose: 2.59 mg/kg/injection, schedule: Q04DX003 (ip), vehicle: saline
  T/C: 156 % of control
dose: 4.32 mg/kg/injection, schedule: Q04DX003 (ip), vehicle: saline
  T/C: 200 % of control
dose: 7.2 mg/kg/injection, schedule: Q04DX003 (ip), vehicle: saline
  T/C: 200 % of control
dose: 12.0 mg/kg/injection, schedule: Q04DX003 (ip), vehicle: saline
  T/C: 211 % of control
dose: 20.0 mg/kg/injection, schedule: Q04DX003 (ip), vehicle: saline
  T/C: 276 % of control

## COc1cc2cc3c4cc(OC)c(OC)cc4cc[n+]3c(C)c2cc1OC (tested in a mixture with another compound)
dose: 25.9 mg/kg/injection, schedule: Q04DX003 (ip), vehicle: water
  T/C: 110 % of control
dose: 43.2 mg/kg/injection, schedule: Q04DX003 (ip), vehicle: water
  T/C: 116 % of control

## COc1cccc2c1C(=O)c1c(O)c3c(c(O)c1C2=O)C[C@@](O)(C(C)=O)C[C@@H]3OC1CC(NCc2ccccc2)C(O)C(C)O1 (stereo partly drawn)
[1]
  T/C: 113 % of control
[2]
  T/C: 117 % of control
[3]
  T/C: 104 % of control

## CC(CN1CC(=O)NC(=O)C1)N1CC(=O)NC(=O)C1 (stereo not drawn)
dose: 300.0 mg/kg/injection, schedule: Q04DX003 (ip), vehicle: saline
  T/C: 198 % of control

## COc1cccc2c1C(=O)c1c(O)c3c(c(O)c1C2=O)C[C@@](O)(C(=O)CO)C[C@@H]3OC1CC([N+](C)(C)C)C(O)C(C)O1 (stereo partly drawn)
dose: 3.89 mg/kg/injection, schedule: Q04DX003 (ip), vehicle: water
  T/C: 103 % of control
[1]
  T/C: 111 % of control
[2]
  T/C: 107 % of control
[3]
  T/C: 108 % of control
dose: 30.0 mg/kg/injection, schedule: Q04DX003 (ip), vehicle: water
  T/C: 100 % of control

## O=NN(CCCl)C(=O)NCCCl
dose: 3.89 mg/kg/injection, schedule: Q04DX003 (ip), vehicle: saline + alcohol
  T/C: 164 % of control
dose: 6.48 mg/kg/injection, schedule: Q04DX003 (ip), vehicle: saline + alcohol
  T/C: 222 % of control
dose: 10.8 mg/kg/injection, schedule: Q04DX003 (ip), vehicle: saline + alcohol
  T/C: 267 % of control
dose: 18.0 mg/kg/injection, schedule: Q04DX003 (ip), vehicle: saline + alcohol
  T/C: 387 % of control
dose: 30.0 mg/kg/injection, schedule: Q04DX003 (ip), vehicle: saline + alcohol
  T/C: 115 % of control

## O=P1(N(CCCl)CCCl)NCCCO1 (stereo not drawn)
dose: 16.2 mg/kg/injection, schedule: Q04DX003 (ip), vehicle: saline
  T/C: 196 % of control
dose: 25.9 mg/kg/injection, schedule: Q04DX002 (ip), vehicle: saline
  T/C: 220 % of control
dose: 27.0 mg/kg/injection, schedule: Q04DX003 (ip), vehicle: saline
  T/C: 240 % of control
dose: 32.4 mg/kg/injection, schedule: Q04DX002 (ip), vehicle: saline
  T/C: 243 % of control
dose: 43.2 mg/kg/injection, schedule: Q04DX002 (ip), vehicle: saline
  T/C: 333 % of control
dose: 45.0 mg/kg/injection, schedule: Q04DX003 (ip), vehicle: saline
  T/C: 348 % of control
dose: 54.0 mg/kg/injection, schedule: Q04DX002 (ip), vehicle: saline
  T/C: 305 % of control
dose: 72.0 mg/kg/injection, schedule: Q04DX002 (ip), vehicle: saline
  T/C: 407 % of control
dose: 75.0 mg/kg/injection, schedule: Q04DX003 (ip), vehicle: saline
  T/C: 348 % of control
dose: 90.0 mg/kg/injection, schedule: Q04DX002 (ip), vehicle: saline
  T/C: 416 % of control
dose: 120.0 mg/kg/injection, schedule: Q04DX002 (ip), vehicle: saline
  T/C: 416 % of control
dose: 125.0 mg/kg/injection, schedule: Q04DX003 (ip), vehicle: saline
  T/C: 348 % of control
dose: 150.0 mg/kg/injection, schedule: Q04DX002 (ip), vehicle: saline
  T/C: 416 % of control
dose: 200.0 mg/kg/injection, schedule: Q04DX002 (ip), vehicle: saline
  T/C: 164 % of control

## C[n+]1ccc(Nc2ccc(NC(=O)c3ccc(Nc4cc[n+](C)c5ccc(N)cc45)cc3)cc2)cc1
dose: 1.73 mg/kg/injection, schedule: Q04DX003 (ip), vehicle: water
  T/C: 155 % of control
dose: 4.8 mg/kg/injection, schedule: Q04DX003 (ip), vehicle: water
  T/C: 154 % of control
dose: 8.0 mg/kg/injection, schedule: Q04DX003 (ip), vehicle: water
  T/C: 182 % of control

## N[C@@H](Cc1ccc(N(CCCl)CCCl)cc1)C(=O)O
dose: 1.62 mg/kg/injection, schedule: Q04DX003 (ip), vehicle: saline
  T/C: 208 % of control
dose: 1.94 mg/kg/injection, schedule: Q04DX002 (ip), vehicle: saline
  T/C: 211 % of control and 212 % of control
dose: 2.7 mg/kg/injection, schedule: Q04DX003 (ip), vehicle: saline
  T/C: 211 % of control
dose: 3.24 mg/kg/injection, schedule: Q04DX002 (ip), vehicle: saline
  T/C: 259 % of control and 262 % of control
dose: 4.5 mg/kg/injection, schedule: Q04DX003 (ip), vehicle: saline
  T/C: 391 % of control
dose: 5.4 mg/kg/injection, schedule: Q04DX002 (ip), vehicle: saline
  T/C: 416 % of control
dose: 7.5 mg/kg/injection, schedule: Q04DX003 (ip), vehicle: saline
  T/C: 391 % of control
dose: 9.0 mg/kg/injection, schedule: Q04DX002 (ip), vehicle: saline
  T/C: 416 % of control
dose: 12.5 mg/kg/injection, schedule: Q04DX003 (ip), vehicle: saline
  T/C: 391 % of control
dose: 15.0 mg/kg/injection, schedule: Q04DX002 (ip), vehicle: saline
  T/C: 120 % of control and 86 % of control
